# From EP0295827A2, “Use of 24,25-dihydroxy-cholecalciferol in mending bone fractures” (priority 1987, dated 1988)
# Key:
# ICR mice [1] = assay: 30-day repeated oral administration: general blood test; assay type: in vivo; parameters: key: ↓: Decreased; →: No change; ↑: Increased; settings: 30 days, vs control group
# Description: (§1) 24R,25-(OH)₂-D₃ was dissolved in 1% ethanol containing Panacate 810 to a predetermined concentration and the resultant solution was forcibly and orally administered to 5-week-old male or female ICR mice for 30 days in succession so that the does might become to 10 µg/kg/day, 100 µg/kg/day and 1,000 µg/kg/day, respectively. The thus treated mice were compared with a group of mice to which only the solvent had been administered in the following test items.
# ICR mice [2] = assay: 30-day repeated oral administration: weight of organs; assay type: in vivo; parameters: key: ↓: Decreased; →: No change; ↑: Increased; settings: 30 days, vs control group
# Description: as §1
# ICR mice [3] = assay: 30-day repeated oral administration: pathological inspection of organs; assay type: in vivo; settings: 10, 100 and 1,000 µg/kg/day oral, 30 days; 10% formalin, hematoxylin-eosin
# Description: as §1
# The following organs were fixed by 10% formalin, stained with hematoxylin-eosin and subjected to pathological inspection.
# [4] = 30-day repeated oral administration: growth curve of measured weights; assay type: in vivo, ICR mice; settings: 10, 100 and 1,000 µg/kg/day oral, 30 days, male or female, vs solvent group
# Description: as §1
# [5] = system: rabbits suffering fracture; assay: Fibula fracture model: X-ray inspection; assay type: in vivo, Japanese white house rabbits; settings: 100 µg/kg oral, 3 weeks after the bones had been broken
# From the text: (§2) The right fibulae of mature house rabbits (Japanese white house rabbits having a weight of about 3 kg) were broken at the central portions under anesthetic with a dental hand drill. Each of the house rabbits was kept in a separate cage and was allowed to take an ordinary solid food (CR-1, produced by Nippon Clare Corp.) and city water freely. 24R,25-(OH)₂-D₃ and 24S,25-(OH)₂-D₃ were dispersed in an aqueous 0.5% CMC solution and orally administered to the house rabbits through a rubber catheter. The experimental groups were as follows:
# (§3) The respective medicines or aqueous 0.5% CMC solution was administered to these house rabbits for 3 weeks or 6 weeks after the bones had been broken. Thereafter, the house rabbits were killed and the fibulae were taken out for X-ray inspection and a strength test (bending test by DDV-VMF produced by Toyo Baldwin Co., Ltd.).
# [6] = system: rabbits suffering fracture; assay: Fibula fracture model: strength test (bending test); assay type: in vivo, Japanese white house rabbits; settings: 100 µg/kg oral, average value ± standard deviation
# From the text: as §2, §3
structure (smiles),measurement,setting,value
"C=C1CC[C@H](O)C/C1=C/C=C1\CCC[C@]2(C)[C@@H]([C@H](C)CC[C@@H](O)C(C)(C)O)CC[C@@H]12 [24R,25-(OH)₂-D₃]",Amount of hemoglobin,"ICR mice [1]; female, 10 μg/kg·day oral",→
same,Homatocrit,"ICR mice [1]; female, 10 μg/kg·day oral",→
same,Number of erythrocyte,"ICR mice [1]; female, 10 μg/kg·day oral",→
same,Number of leucocyte,"ICR mice [1]; female, 10 μg/kg·day oral",→
same,Amount of hemoglobin,"ICR mice [1]; female, 100 μg/kg·day oral",→
same,Homatocrit,"ICR mice [1]; female, 100 μg/kg·day oral",→
same,Number of erythrocyte,"ICR mice [1]; female, 100 μg/kg·day oral",→
same,Number of leucocyte,"ICR mice [1]; female, 100 μg/kg·day oral",→
same,Amount of hemoglobin,"ICR mice [1]; female, 1000 μg/kg·day oral",→
same,Homatocrit,"ICR mice [1]; female, 1000 μg/kg·day oral",→
same,Number of erythrocyte,"ICR mice [1]; female, 1000 μg/kg·day oral",→
same,Number of leucocyte,"ICR mice [1]; female, 1000 μg/kg·day oral",→
same,Amount of hemoglobin,"ICR mice [1]; male, 10 μg/kg·day oral",→
same,Homatocrit,"ICR mice [1]; male, 10 μg/kg·day oral",→
same,Number of erythrocyte,"ICR mice [1]; male, 10 μg/kg·day oral",→
same,Number of leucocyte,"ICR mice [1]; male, 10 μg/kg·day oral",→
same,Amount of hemoglobin,"ICR mice [1]; male, 100 μg/kg·day oral",→
same,Homatocrit,"ICR mice [1]; male, 100 μg/kg·day oral",→
same,Number of erythrocyte,"ICR mice [1]; male, 100 μg/kg·day oral",→
same,Number of leucocyte,"ICR mice [1]; male, 100 μg/kg·day oral",→
same,Amount of hemoglobin,"ICR mice [1]; male, 1000 μg/kg·day oral",→
same,Homatocrit,"ICR mice [1]; male, 1000 μg/kg·day oral",→
same,Number of erythrocyte,"ICR mice [1]; male, 1000 μg/kg·day oral",→
same,Number of leucocyte,"ICR mice [1]; male, 1000 μg/kg·day oral",→
same,Weight of organs: Adrenal gland,"ICR mice [2]; gemale, 10 μg/kg·day oral",→
same,Weight of organs: Brain,"ICR mice [2]; gemale, 10 μg/kg·day oral",→
same,Weight of organs: Heart,"ICR mice [2]; gemale, 10 μg/kg·day oral",→
same,Weight of organs: Hypo-physis,"ICR mice [2]; gemale, 10 μg/kg·day oral",→
same,Weight of organs: Kidney,"ICR mice [2]; gemale, 10 μg/kg·day oral",→
same,Weight of organs: Liver,"ICR mice [2]; gemale, 10 μg/kg·day oral",→
same,Weight of organs: Lung,"ICR mice [2]; gemale, 10 μg/kg·day oral",→
same,Weight of organs: Ovary,"ICR mice [2]; gemale, 10 μg/kg·day oral",→
same,Weight of organs: Spleen,"ICR mice [2]; gemale, 10 μg/kg·day oral",→
same,Weight of organs: Thymus,"ICR mice [2]; gemale, 10 μg/kg·day oral",→
same,Weight of organs: Uterus,"ICR mice [2]; gemale, 10 μg/kg·day oral",→
same,Weight of organs: Adrenal gland,"ICR mice [2]; gemale, 100 μg/kg·day oral",→
same,Weight of organs: Brain,"ICR mice [2]; gemale, 100 μg/kg·day oral",→
same,Weight of organs: Heart,"ICR mice [2]; gemale, 100 μg/kg·day oral",→
same,Weight of organs: Hypo-physis,"ICR mice [2]; gemale, 100 μg/kg·day oral",→
same,Weight of organs: Kidney,"ICR mice [2]; gemale, 100 μg/kg·day oral",→
same,Weight of organs: Liver,"ICR mice [2]; gemale, 100 μg/kg·day oral",→
same,Weight of organs: Lung,"ICR mice [2]; gemale, 100 μg/kg·day oral",→
same,Weight of organs: Ovary,"ICR mice [2]; gemale, 100 μg/kg·day oral",→
same,Weight of organs: Spleen,"ICR mice [2]; gemale, 100 μg/kg·day oral",→
same,Weight of organs: Thymus,"ICR mice [2]; gemale, 100 μg/kg·day oral",→
same,Weight of organs: Uterus,"ICR mice [2]; gemale, 100 μg/kg·day oral",→
same,Weight of organs: Adrenal gland,"ICR mice [2]; gemale, 1000 μg/kg·day oral",→
same,Weight of organs: Brain,"ICR mice [2]; gemale, 1000 μg/kg·day oral",→
same,Weight of organs: Heart,"ICR mice [2]; gemale, 1000 μg/kg·day oral",→
same,Weight of organs: Hypo-physis,"ICR mice [2]; gemale, 1000 μg/kg·day oral",→
same,Weight of organs: Kidney,"ICR mice [2]; gemale, 1000 μg/kg·day oral",→
same,Weight of organs: Liver,"ICR mice [2]; gemale, 1000 μg/kg·day oral",→
same,Weight of organs: Lung,"ICR mice [2]; gemale, 1000 μg/kg·day oral",→
same,Weight of organs: Ovary,"ICR mice [2]; gemale, 1000 μg/kg·day oral",→
same,Weight of organs: Spleen,"ICR mice [2]; gemale, 1000 μg/kg·day oral",→
same,Weight of organs: Thymus,"ICR mice [2]; gemale, 1000 μg/kg·day oral",→
same,Weight of organs: Uterus,"ICR mice [2]; gemale, 1000 μg/kg·day oral",→
same,Weight of organs: Adrenal gland,"ICR mice [2]; male, 10 μg/kg·day oral",→
same,Weight of organs: Brain,"ICR mice [2]; male, 10 μg/kg·day oral",→
same,Weight of organs: Heart,"ICR mice [2]; male, 10 μg/kg·day oral",→
same,Weight of organs: Hypo-physis,"ICR mice [2]; male, 10 μg/kg·day oral",→
same,Weight of organs: Kidney,"ICR mice [2]; male, 10 μg/kg·day oral",→
same,Weight of organs: Liver,"ICR mice [2]; male, 10 μg/kg·day oral",→
same,Weight of organs: Lung,"ICR mice [2]; male, 10 μg/kg·day oral",→
same,Weight of organs: Spleen,"ICR mice [2]; male, 10 μg/kg·day oral",→
same,Weight of organs: Testis,"ICR mice [2]; male, 10 μg/kg·day oral",→
same,Weight of organs: Thymus,"ICR mice [2]; male, 10 μg/kg·day oral",→
same,Weight of organs: Adrenal gland,"ICR mice [2]; male, 100 μg/kg·day oral",→
same,Weight of organs: Brain,"ICR mice [2]; male, 100 μg/kg·day oral",→
same,Weight of organs: Heart,"ICR mice [2]; male, 100 μg/kg·day oral",→
same,Weight of organs: Hypo-physis,"ICR mice [2]; male, 100 μg/kg·day oral",→
same,Weight of organs: Kidney,"ICR mice [2]; male, 100 μg/kg·day oral",→
same,Weight of organs: Liver,"ICR mice [2]; male, 100 μg/kg·day oral",→
same,Weight of organs: Lung,"ICR mice [2]; male, 100 μg/kg·day oral",→
same,Weight of organs: Spleen,"ICR mice [2]; male, 100 μg/kg·day oral",→
same,Weight of organs: Testis,"ICR mice [2]; male, 100 μg/kg·day oral",→
same,Weight of organs: Thymus,"ICR mice [2]; male, 100 μg/kg·day oral",→
same,Weight of organs: Adrenal gland,"ICR mice [2]; male, 1000 μg/kg·day oral",→
same,Weight of organs: Brain,"ICR mice [2]; male, 1000 μg/kg·day oral",→
same,Weight of organs: Heart,"ICR mice [2]; male, 1000 μg/kg·day oral",→
same,Weight of organs: Hypo-physis,"ICR mice [2]; male, 1000 μg/kg·day oral",→
same,Weight of organs: Kidney,"ICR mice [2]; male, 1000 μg/kg·day oral",→
same,Weight of organs: Liver,"ICR mice [2]; male, 1000 μg/kg·day oral",→
same,Weight of organs: Lung,"ICR mice [2]; male, 1000 μg/kg·day oral",→
same,Weight of organs: Spleen,"ICR mice [2]; male, 1000 μg/kg·day oral",→
same,Weight of organs: Testis,"ICR mice [2]; male, 1000 μg/kg·day oral",→
same,Weight of organs: Thymus,"ICR mice [2]; male, 1000 μg/kg·day oral",→
same,pathological inspection of organs,ICR mice [3],No particular abnormality was observed
same,growth curve of the measured weights,[4],no significant difference
same,X-ray inspection,[5],the cure of the fracture was accelerated
same,Bending strength,[6]; 3 weeks after,63 ± 33 N/mm
same,Bending strength,[6]; 6 weeks after,103 ± 15 N/mm
